Data reported in Sander's compilation of Henry's law constants (doi:10.1016/j.atmosenv.2016.10.009).

Assay: Henry solubility constant Hcp at 298.15 K (mol/(m3 Pa))
Details: reference: Odabasi and Adali (2016)

Row | Henry solubility constant Hcp | SMILES
1 | 0.17 | Clc1ccc2c(Cl)cc(Cl)c(Cl)c2c1Cl [1,2,4,7,8-pentachloronaphthalene]
2 | 0.11 | Clc1ccc2c(Cl)cccc2c1Cl [1,2,5-trichloronaphthalene]
3 | 0.17 | Clc1ccc2c(Cl)c(Cl)ccc2c1 [1,2,6-trichloronaphthalene]
4 | 0.071 | Clc1cc(Cl)c2cccc(Cl)c2c1 [1,3,5-trichloronaphthalene]
5 | 0.35 | Clc1ccc(Cl)c2c(Cl)ccc(Cl)c12 [1,4,5,8-tetrachloronaphthalene]
6 | 0.22 | Clc1ccc(Cl)c2c(Cl)cccc12 [1,4,5-trichloronaphthalene]

Continued, compound first:

Row | SMILES | Henry solubility constant Hcp
7 | Clc1cc2c(Cl)c(Cl)c(Cl)c(Cl)c2c(Cl)c1Cl [1,2,3,4,5,6,7-heptachloronaphthalene] | 3.6
8 | Clc1cc(Cl)c2c(Cl)c(Cl)c(Cl)c(Cl)c2c1Cl [1,2,3,4,5,6,8-heptachloronaphthalene] | 2.4
9 | Clc1ccc2c(Cl)c(Cl)c(Cl)c(Cl)c2c1Cl [1,2,3,4,5,6-hexachloronaphthalene] | 0.78
10 | Clc1c(Cl)c(Cl)c2c(Cl)ccc(Cl)c2c1Cl [1,2,3,4,5,8-hexachloronaphthalene] | 0.93
11 | Clc1ccc2c(Cl)c(Cl)c(Cl)c(Cl)c2c1 [1,2,3,4,6-pentachloronaphthalene] | 0.078
12 | Clc1cc2c(Cl)cc(Cl)c(Cl)c2c(Cl)c1Cl [1,2,3,5,7,8-hexachloronaphthalene] | 0.43
13 | Clc1cc2c(Cl)ccc(Cl)c2c(Cl)c1Cl [1,2,3,5,8-pentachloronaphthalene] | 0.17
14 | Clc1cc(Cl)c2c(Cl)c(Cl)ccc2c1Cl [1,2,4,5,6-pentachloronaphthalene] | 0.14
15 | Clc1cc(Cl)c2c(Cl)cc(Cl)c(Cl)c2c1 [1,2,4,5,7-pentachloronaphthalene] | 0.089
16 | Clc1cc(Cl)c2c(Cl)ccc(Cl)c2c1Cl [1,2,4,5,8-pentachloronaphthalene] | 0.26
17 | Clc1cc(Cl)c2c(Cl)cccc2c1Cl [1,2,4,5-tetrachloronaphthalene] | 0.15
18 | Clc1cc(Cl)c2c(Cl)c(Cl)cc(Cl)c2c1 [1,2,4,6,8-pentachloronaphthalene] | 0.1
19 | Clc1c(Cl)c(Cl)c2c(Cl)c(Cl)c(Cl)c(Cl)c2c1Cl [octachloronaphthalene] | 1.2
